≈ marks a conversion by molar mass, not a printed value.
Legend:
[1] = Half life of compound in HEPES buffer measured at pH 7.5 and 30 DegC by HPLC analysis; assay type: physicochemical
[2] = Stability of compound in HEPES buffer assessed as hydrolysis measured at pH 7.5 and 30 DegC after 9 hrs by HPLC analysis; assay type: physicochemical; details: pH 7.5, 9 h
Escherichia coli = test: Antimicrobial activity against Escherichia coli K-12 measured after 19 hrs; assay type: functional; details: K-12, 19 h
[3] = Drug degradation in HEPES buffer assessed as decomposition measured at pH 7.5 and 30 DegC after 21 hrs by HPLC analysis; assay type: physicochemical; details: read-out: Drug degradation

Structure (SMILES) | half-life [1] [h] | Stability [2] | MIC (Escherichia coli) [µM] | degraded at 21 h [3] [%]
O=C(NCCCCCC(=O)N1CCN(c2cc3c(cc2F)c(=O)c(C(=O)O)cn3C2CC2)CC1)c1cc(O)c(O)c(C(=O)N[C@H]2COC(=O)[C@@H](NC(=O)c3cccc(O)c3O)COC(=O)[C@@H](NC(=O)c3cccc(O)c3O)COC2=O)c1 | 8.7 | – | – | –
CC(OC(=O)[C@H](C)NC(=O)c1cc(O)c(O)c(C(=O)N[C@H]2COC(=O)[C@@H](NC(=O)c3cccc(O)c3O)COC(=O)[C@@H](NC(=O)c3cccc(O)c3O)COC2=O)c1)OC(=O)N1CCN(c2cc3c(cc2F)c(=O)c(C(=O)O)cn3C2CC2)CC1 (stereo not given in full) | 8.1 | Unstable | 1 (≈ 1.19 µg/mL) | –
CN[C@H](C(=O)OC(C)OC(=O)N1CCN(c2cc3c(cc2F)c(=O)c(C(=O)O)cn3C2CC2)CC1)C(C)C (stereo not given in full) | 2.4 | – | – | –
CNCC(=O)OC(C)OC(=O)N1CCN(c2cc3c(cc2F)c(=O)c(C(=O)O)cn3C2CC2)CC1 (stereo not given) | 1.6 | – | – | –
CC(OC(=O)[C@H](C)NC(=O)c1ccccc1)OC(=O)N1CCN(c2cc3c(cc2F)c(=O)c(C(=O)O)cn3C2CC2)CC1 (stereo not given in full) | > 60 | – | – | 20
CC(OC(=O)[C@@H](NC(=O)c1ccccc1)C(C)C)OC(=O)N1CCN(c2cc3c(cc2F)c(=O)c(C(=O)O)cn3C2CC2)CC1 (stereo not given in full) | > 130 | – | – | 10
CC(OC(=O)[C@@H](NC(=O)c1cc(O)c(O)c(C(=O)N[C@H]2COC(=O)[C@@H](NC(=O)c3cccc(O)c3O)COC(=O)[C@@H](NC(=O)c3cccc(O)c3O)COC2=O)c1)C(C)C)OC(=O)N1CCN(c2cc3c(cc2F)c(=O)c(C(=O)O)cn3C2CC2)CC1 (stereo not given in full) | 9.9 | Unstable | 1 (≈ 1.21 µg/mL) | –
O=C(O)c1cn(C2CC2)c2cc(N3CCNCC3)c(F)cc2c1=O [CIPROFLOXACIN] | – | – | 0.1 (≈ 0.0331 µg/mL) | –
CNCC(=O)OCOC(=O)N1CCN(c2cc3c(cc2F)c(=O)c(C(=O)O)cn3C2CC2)CC1 | 0.35 | – | – | –

Source: ChEMBL document CHEMBL3621188, “Evaluation of (acyloxy)alkyl ester linkers for antibiotic release from siderophore-antibiotic conjugates” (Bioorg Med Chem Lett, 2015)
